Reference: ChEMBL document CHEMBL1201862, “PubChem BioAssay data set” (2004)
Active and inactive are the calls of the source.

Legend:
Type in all cases: functional
[1] = target: T1, Corticotropin-releasing factor receptor 2/Corticotropin-releasing factor-binding protein (Homo sapiens, UniProt P24387+Q13324); assay: activators of CRF receptor 2 with binding protein – uHTS hits, confirmation (AID 602473); conditions: read-out: EC50_Mean
T1 sequence (Q13324 whole entry): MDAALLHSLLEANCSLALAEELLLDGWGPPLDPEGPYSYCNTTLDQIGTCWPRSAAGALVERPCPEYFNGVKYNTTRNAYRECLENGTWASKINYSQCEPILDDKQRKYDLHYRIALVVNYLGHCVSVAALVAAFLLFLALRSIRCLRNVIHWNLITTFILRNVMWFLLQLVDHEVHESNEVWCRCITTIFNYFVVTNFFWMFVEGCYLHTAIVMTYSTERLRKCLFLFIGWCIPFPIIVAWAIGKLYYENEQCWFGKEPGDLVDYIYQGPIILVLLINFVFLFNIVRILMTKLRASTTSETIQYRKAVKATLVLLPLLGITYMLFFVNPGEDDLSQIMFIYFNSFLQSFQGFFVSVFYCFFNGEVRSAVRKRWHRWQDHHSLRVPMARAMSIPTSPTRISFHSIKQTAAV
T1 sequence (P24387 whole entry): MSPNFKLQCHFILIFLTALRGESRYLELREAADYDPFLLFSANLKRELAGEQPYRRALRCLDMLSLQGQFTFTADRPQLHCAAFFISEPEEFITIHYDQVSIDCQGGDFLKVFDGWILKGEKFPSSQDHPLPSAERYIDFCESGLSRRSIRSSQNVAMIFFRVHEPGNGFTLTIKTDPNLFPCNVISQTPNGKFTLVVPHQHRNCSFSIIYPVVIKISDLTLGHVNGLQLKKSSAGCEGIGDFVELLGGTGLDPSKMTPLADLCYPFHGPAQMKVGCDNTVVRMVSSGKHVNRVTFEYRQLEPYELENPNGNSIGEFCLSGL

[2] = M. tuberculosis growth inhibition, HTS (AID 449762)
[3] = viability of uninfected HEp-2 cells – cell-based, HTS, cytotoxicity control for RSV inhibitor project, dose response (AID 2410); conditions: human respiratory syncytial virus
[4] = microbe, parasite or virus in culture; conditions: Mycobacterium tuberculosis
[5] = target: T1, Corticotropin-releasing factor receptor 2/Corticotropin-releasing factor-binding protein; assay: Dose Response confirmation of uHTS hits for small molecule antagonists of the CRF-binding protein and CRF-R2 receptor complex.; conditions: read-out: IC50_Mean
[6] = viability loss in THP-1 monocytes – THP-1 cells, cytotoxicity control for Vif-APOBEC3G degradation inhibitor project, dose response (AID 1117359); conditions: THP-1
[7] = Luminescent dose response cell-based high throughput screening assay for inhibitors of the Janus kinase 2 mutant JAK2V617F. [Related pubchem assays: 1446 (Primary screen.), 1521 (Confirmation assay.), 1486 (Counter screen.)]
[8] = target: T2, Rac GTPase-activating protein 1 (Homo sapiens, UniProt Q9H0H5); assay: blockers of MgcRacGAP-driven Rac1 GTP hydrolysis – biochemical, ADP Hunter fluorescence, primary and confirmatory, confirmation (AID 624330)
T2 sequence (Q9H0H5 whole entry): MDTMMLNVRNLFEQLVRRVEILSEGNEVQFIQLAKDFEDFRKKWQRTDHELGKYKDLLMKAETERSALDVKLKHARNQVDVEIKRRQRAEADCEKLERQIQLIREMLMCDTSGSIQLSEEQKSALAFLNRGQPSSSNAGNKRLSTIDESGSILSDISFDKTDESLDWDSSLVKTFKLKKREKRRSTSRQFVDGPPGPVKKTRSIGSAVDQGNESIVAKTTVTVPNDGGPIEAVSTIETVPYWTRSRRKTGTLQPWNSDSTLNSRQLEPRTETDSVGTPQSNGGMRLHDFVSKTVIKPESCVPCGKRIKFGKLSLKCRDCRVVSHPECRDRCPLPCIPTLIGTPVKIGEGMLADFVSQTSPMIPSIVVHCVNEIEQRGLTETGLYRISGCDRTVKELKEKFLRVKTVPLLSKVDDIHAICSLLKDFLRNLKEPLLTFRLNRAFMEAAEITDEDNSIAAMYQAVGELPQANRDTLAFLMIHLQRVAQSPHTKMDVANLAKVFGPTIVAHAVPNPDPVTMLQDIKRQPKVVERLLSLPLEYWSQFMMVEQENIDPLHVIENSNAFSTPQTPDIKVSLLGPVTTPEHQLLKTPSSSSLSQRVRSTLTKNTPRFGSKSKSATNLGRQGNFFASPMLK

| SMILES | EC50 [1] | IC50 [2] | CC50 [3] | CC50 [4] | IC50 [5] | CC50 [6] | IC50 [7] | IC50 [8] |
| --- | --- | --- | --- | --- | --- | --- | --- | --- |
| Cc1nn(-c2ccccc2)c(N2CCCC2)c1/C=N/Nc1ccc(S(N)(=O)=O)cc1[N+](=O)[O-] | > 53 µM (inactive) | > 100 µM (active) | 33.2 µM (active) | > 40 µM (active) | > 47.1 µM (inactive) | – | – | – |
| O=C(/C=C/c1ccc(O)c(O)c1)c1ccc(S(=O)(=O)N2CCCCCC2)cc1 | – | – | – | – | – | 26.3 µM (active) | 0.835 µM (active) | 82 µM (active) |
